# Reference: patent publication US7582797B2, “Derivatives of 4,4′-dithiobis-(3-aminobutane-1-sulfonates) and compositions comprising the same” (Institute National de la Sante et de la Recherche Medicale …, priority 2003, dated 2009)
# Biological target: T1, recombinant aminopeptidase A (UniProt P16406)
# T1 sequence (P16406 1-945): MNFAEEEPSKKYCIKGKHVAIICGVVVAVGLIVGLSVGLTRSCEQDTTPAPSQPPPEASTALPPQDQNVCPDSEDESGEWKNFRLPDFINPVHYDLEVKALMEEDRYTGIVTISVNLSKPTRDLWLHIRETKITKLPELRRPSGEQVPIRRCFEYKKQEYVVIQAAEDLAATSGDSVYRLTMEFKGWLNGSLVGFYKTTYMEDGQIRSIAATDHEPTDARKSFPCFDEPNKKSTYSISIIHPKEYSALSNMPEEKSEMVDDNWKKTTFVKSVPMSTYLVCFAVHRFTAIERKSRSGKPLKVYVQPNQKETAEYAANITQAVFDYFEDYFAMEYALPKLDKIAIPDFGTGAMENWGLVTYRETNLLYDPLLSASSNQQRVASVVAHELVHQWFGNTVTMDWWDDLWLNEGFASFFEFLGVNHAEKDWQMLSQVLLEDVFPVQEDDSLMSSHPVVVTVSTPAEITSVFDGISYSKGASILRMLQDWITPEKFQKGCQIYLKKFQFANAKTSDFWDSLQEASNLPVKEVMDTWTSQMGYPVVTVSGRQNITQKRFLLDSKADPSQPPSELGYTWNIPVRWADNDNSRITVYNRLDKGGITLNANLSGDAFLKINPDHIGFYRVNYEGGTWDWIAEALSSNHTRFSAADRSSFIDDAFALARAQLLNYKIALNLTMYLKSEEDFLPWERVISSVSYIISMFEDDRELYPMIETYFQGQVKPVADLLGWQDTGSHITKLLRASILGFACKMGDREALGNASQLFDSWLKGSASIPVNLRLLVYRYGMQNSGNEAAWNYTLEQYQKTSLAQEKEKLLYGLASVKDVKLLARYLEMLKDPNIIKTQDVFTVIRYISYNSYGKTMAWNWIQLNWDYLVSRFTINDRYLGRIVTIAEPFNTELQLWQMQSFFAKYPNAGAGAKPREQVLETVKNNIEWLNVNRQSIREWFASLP
# Experiment: Determination of the inhibition constants with respect to APA (GluβNa hydrolysis, microplate assay)
# Assay type: biochemical
# Conditions: for Ki: recombinant APA, 200 μM GluβNa, pH 7.4 Tris-HCl, 4 mM CaCl2, 37° C.
# Procedure: The compounds 5 were tested, in vitro, on recombinant aminopeptidase A in order to determine their affinity for APA.
# The assaying of APA activity is based on the protocol of Goldberg, adapted to the microplate assay scale (Pro Bind® 3915) (Chauvel et al., J. Med. Chem., 1994, 37, 1339-1346).
# In vitro, in the presence of calcium ions, APA hydrolyzes α-L-glutamyl-β-naphthylamide (gluβNa) to glutamate and β-naphthylamine (βNa). A diazotization reaction in an acidic medium makes it possible to visualize the β-naphthylamine by formation of a violet-colored complex: spectrophotometric measurement then makes it possible to determine the amount of complex formed and, by reference to a standard curve produced with increasing concentrations of β-naphthylamine, to deduce therefrom the enzymatic activity of the sample.
# The GluβNa substrate and the β-naphthylamine (Bachem) are solubilized in dimethyl sulfoxide and 0.1N HCl, respectively, and conserved at −20° C. at a concentration of 10^−2M. The diazotization reaction is carried out in the presence of sodium nitrite (87 mM), of ammonium sulfamate (130 mM) and of N-(1-naphthyl)ethylenediamine dihydrochloride (23 mM).
# The reaction takes place at pH 7.4 in 50 mM Tris-HCl buffer, in the presence of calcium (4 mM CaCl2); the sample to be assayed is incubated at 37° C. in the presence of a substrate (200 μM GluβNa) and in the presence or absence of various concentrations of the inhibitor to be tested, in a final volume of 100 μl. The reaction is stopped by the addition of 10 μl of 3N HCl. A standard curve for β-naphthylamine in an acidic medium (addition of 10 μl of 0.1N HCl) is produced in parallel.
# The following are added to each well:
# 25 μl of sodium nitrite (mix, wait 5 min at ambient temperature),
# 50 μl of ammonium sulfamate (stir, wait 5 min at ambient temperature), then
# 25 μl of 23 mM N-(1-naphthyl)ethylenediamine dihydrochloride (mix, wait for the violet color to stabilize for approximately 30 min at 37° C.).
# The absorbance is subsequently measured at 540 nm.
# The compound EC 33 ((S)-3-amino-4-mercaptobutylsulfonic acid) described in application WO 99/36066), a monomer of the compound RB 150 (4,4′-dithiobis-3-aminobutane-1-sulfonic acid) described in application WO 2004/007441, was used as a reference compound.
SMILES,Ki [nM],APA-inhibiting activity greater than that of the reference compound (EC 33) by a factor (relative to EC 33),inhibitory activity compared with the reference compound (EC 33) (relative to EC 33)
"CC(C)CC(S)C(N)CCS(=O)(=O)O (stereo not shown) [Compound 5c, 3-Amino-4-mercapto-6-methylheptane-1-sulfonic acid]",4000,–,–
"NC(CCS(=O)(=O)O)C(S)c1ccccc1 (stereo not shown) [Compound 5b, 3-Amino-4-mercapto-4-phenylbutane-1-sulfonic acid]",8000,–,–
"N[C@H](CS)CCS(=O)(=O)O [EC 33, (S)-3-amino-4-mercaptobutylsulfonic acid, reference compound]",304,–,–
"COc1ccc(CCC(S)C(N)CCS(=O)(=O)O)cc1 (stereo not shown) [Compound 5f, 3-Amino-4-mercapto-6-(4-methoxyphenyl)hexane-1-sulfonic acid]",92,–,of the same order as or greater than that of the reference compound
"CC(S)C(N)CCS(=O)(=O)O (stereo not shown) [Compound 5a, 3-Amino-4-mercaptopentane-1-sulfonic acid]",> 100000,–,–
"NC(CCS(=O)(=O)O)C(S)CCc1ccc(Br)cc1 (stereo not shown) [Compound 5h, 3-Amino-4-mercapto-6-(4-bromophenyl)hexane-1-sulfonic acid]",110,–,of the same order as or greater than that of the reference compound

# Second part, led by results:
Ki [nM],APA-inhibiting activity greater than that of the reference compound (EC 33) by a factor (relative to EC 33),SMILES,inhibitory activity compared with the reference compound (EC 33) (relative to EC 33)
30,10,"N[C@@H](CCS(=O)(=O)O)[C@@H](S)CCc1ccccc1 [Compound 5e2, (3S,4S)-3-Amino-4-mercapto-6-phenylhexane-1-sulfonic acid]",–
80,–,"NC(CCS(=O)(=O)O)C(S)CCc1ccccc1 (stereo not shown) [Compound 5e, 3-Amino-4-mercapto-6-phenylhexane-1-sulfonic acid]",of the same order as or greater than that of the reference compound
380,–,"NC(CCS(=O)(=O)O)C(S)Cc1ccccc1 (stereo not shown) [Compound 5d, 3-Amino-4-mercapto-5-phenylpentane-1-sulfonic acid]",of the same order as or greater than that of the reference compound
1920,–,"N[C@H](CCS(=O)(=O)O)[C@@H](S)CCc1ccccc1 [Compound 5e1, (3R,4S)-3-Amino-4-mercapto-6-phenylhexane-1-sulfonic acid]",–
840,–,"N[C@H](CCS(=O)(=O)O)[C@H](S)CCc1ccccc1 [Compound 5e4, (3R,4R)-3-Amino-4-mercapto-6-phenylhexane-1-sulfonic acid]",–
96,–,"COc1ccccc1CCC(S)C(N)CCS(=O)(=O)O (stereo not shown) [Compound 5g, 3-Amino-4-mercapto-6-(2-methoxyphenyl)hexane-1-sulfonic acid]",of the same order as or greater than that of the reference compound
1040,–,"N[C@@H](CCS(=O)(=O)O)[C@H](S)CCc1ccccc1 [Compound 5e3, (3S,4R)-3-Amino-4-mercapto-6-phenylhexane-1-sulfonic acid]",–
